Measured values from paper PMC12850010, “Interaction of cytochrome P450 3A4 with the hydrophilic ligand tetraethylene glycol” (Biochemical and biophysical research communications, 2025).

Assays:
[1] = biological target: T1, CYP3A4 (Homo sapiens, UniProt P08684); assay: Spectral binding (equilibrium) titrations of CYP3A4; settings: for Kd: human, CYP3A4 protein solution (2 μM), sigmoidal (Hill) fit
Procedure: (§1) Equilibrium titrations of CYP3A4 were conducted in a Cary 300 spectrophotometer at ambient temperature in 0.1 M phosphate, pH 7.4. […] The binding parameters were determined from fittings to the plot of the absorbance change (peak-to-trough separations in the difference spectra; ΔA) vs ligand concentration.

[2] = biological target: T1, CYP3A4; settings: pH 7.4
Procedure: as §1

T1 sequence (P08684 with tags, fused parts or gaps): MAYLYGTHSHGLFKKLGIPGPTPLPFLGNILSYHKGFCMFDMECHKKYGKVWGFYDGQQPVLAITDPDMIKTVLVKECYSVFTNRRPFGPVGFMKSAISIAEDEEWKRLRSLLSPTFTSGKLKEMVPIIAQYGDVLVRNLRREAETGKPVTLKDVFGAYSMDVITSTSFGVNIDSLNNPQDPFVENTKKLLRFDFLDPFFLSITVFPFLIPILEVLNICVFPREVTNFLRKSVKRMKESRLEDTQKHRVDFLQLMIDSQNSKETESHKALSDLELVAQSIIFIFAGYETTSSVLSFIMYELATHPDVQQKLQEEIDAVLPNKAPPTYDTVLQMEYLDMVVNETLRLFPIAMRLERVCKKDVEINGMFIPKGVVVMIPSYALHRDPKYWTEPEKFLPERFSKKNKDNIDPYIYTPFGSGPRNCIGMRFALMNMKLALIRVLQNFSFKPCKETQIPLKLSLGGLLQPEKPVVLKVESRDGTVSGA

Row | Structure (SMILES) | decrease of binding affinity for WT CYP3A4 in the presence of TEG ([1]; 15 mM TEG vs no TEG) [%] | nH (Hill coefficient) [2] | Kd ([1]; pH 7.4, S50, 15 mM TEG) [µM] | Kd ([1]; pH 7.4, S50, no TEG) [µM]
1 | Cc1ncc2n1-c1ccc(Cl)cc1C(c1ccccc1F)=NC2 [Midazolam] | 30 |  |  | 
2 | CC(=O)[C@H]1CC[C@H]2[C@@H]3CCC4=CC(=O)CC[C@]4(C)[C@H]3CC[C@]12C [Progesterone] |  | 1.6 ± 0.1 | 16 ± 2 | 17 ± 1
